Laboratory results reported in US20230365592A1 (Agios Pharmaceuticals, Inc., priority 2022, published 2023).
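Further: after compound treatment, cells received sepiapterin plus isotope-labelled Phenylalanine for 4 hours, then labelled Tyrosine in the medium was quantified, 10-point 2-fold dilution series run in duplicate.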

What follows are molecules tested against T1, human PAH with the R408W mutation (Homo sapiens, UniProt P00439, R408W) (assay: Cell Based Phenylalanine Flux Assay). Conditions: A375 cells expressing human R408W PAH; 24 hrs compound incubation; 13C-Tyrosine by LC-MS; average where tested multiple times; read-out: AC50.
T1 construct: expressed in transfected cells
T1 sequence (P00439 1-452 R408W): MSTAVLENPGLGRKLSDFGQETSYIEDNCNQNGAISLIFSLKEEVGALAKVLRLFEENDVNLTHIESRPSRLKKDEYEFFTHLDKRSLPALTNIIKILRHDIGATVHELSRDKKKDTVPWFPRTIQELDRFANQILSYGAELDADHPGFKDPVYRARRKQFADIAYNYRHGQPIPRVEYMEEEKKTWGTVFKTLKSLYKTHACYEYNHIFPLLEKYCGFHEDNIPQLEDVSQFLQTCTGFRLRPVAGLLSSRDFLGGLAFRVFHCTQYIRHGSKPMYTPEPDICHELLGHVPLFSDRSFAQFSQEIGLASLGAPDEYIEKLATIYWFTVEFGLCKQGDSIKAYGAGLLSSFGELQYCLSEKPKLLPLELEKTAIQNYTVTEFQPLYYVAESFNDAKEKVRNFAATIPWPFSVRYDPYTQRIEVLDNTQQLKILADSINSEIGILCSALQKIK
`Cc1cccn2nc([C@H]3c4nc[nH]c4CCN3C(=O)c3oc(C4(O)CC4)nc3C(F)F)cc12` [Example 1221, (R)-(4-(difluoromethyl)-2-(1-hydroxycyclopropyl)oxazol-5-yl)(4-(4-methylpyrazolo[1,5-a]pyridin-2-yl)-6,7-dihydro-1H-imidazo[4,5-c]pyridin-5(4H)-yl)methanone] gave an AC50 of 1000 to 5000 nM. `O=C(c1oc(C2(O)CC2)nc1C(F)F)N1CCc2[nH]cnc2[C@H]1c1cc2c(C(F)(F)F)cccn2n1` [Example 1222, (S)-(4-(difluoromethyl)-2-(1-hydroxycyclopropyl)oxazol-5-yl)(4-(4-(trifluoromethyl)pyrazolo[1,5-a]pyridin-2-yl)-6,7-dihydro-1H-imidazo[4,5-c]pyridin-5(4H)-yl)methanone] was tested, and the AC50 was < 500 nM. `O=C(c1oc(C2(O)CC2)nc1C(F)F)N1CCc2[nH]cnc2[C@@H]1c1cc2c(C(F)(F)F)cccn2n1` [Example 1223, (R)-(4-(difluoromethyl)-2-(1-hydroxycyclopropyl)oxazol-5-yl)(4-(4-(trifluoromethyl)pyrazolo[1,5-a]pyridin-2-yl)-6,7-dihydro-1H-imidazo[4,5-c]pyridin-5(4H)-yl)methanone] showed an AC50 of 1000 to 5000 nM. `Cn1cc(-c2nnc(C(=O)N3CCc4[nH]cnc4[C@@H]3c3cc4cccc(F)n4n3)o2)cn1` [Example 1225, (R)-(4-(7-fluoropyrazolo[1,5-a]pyridin-2-yl)-6,7-dihydro-1H-imidazo[4,5-c]pyridin-5(4H)-yl)(5-(1-methyl-1H-pyrazol-4-yl)-1,3,4-oxadiazol-2-yl)methanone] was tested, and the AC50 was 1000 to 5000 nM. `CC(C)(F)c1nc(C(F)F)c(C(=O)N2CCc3[nH]cnc3[C@H]2c2cc3c(F)cccn3n2)o1` [Example 1226, (S)-(4-(difluoromethyl)-2-(2-fluoropropan-2-yl)oxazol-5-yl)(4-(4-fluoropyrazolo[1,5-a]pyridin-2-yl)-6,7-dihydro-1H-imidazo[4,5-c]pyridin-5(4H)-yl)methanone] was tested, and the AC50 was < 500 nM. For `CC(C)(F)c1nc(C(F)F)c(C(=O)N2CCc3[nH]cnc3[C@@H]2c2cc3c(F)cccn3n2)o1` [Example 1227, (R)-(4-(difluoromethyl)-2-(2-fluoropropan-2-yl)oxazol-5-yl)(4-(4-fluoropyrazolo[1,5-a]pyridin-2-yl)-6,7-dihydro-1H-imidazo[4,5-c]pyridin-5(4H)-yl)methanone], the AC50 was 500 to 1000 nM. `CC(C)(F)c1nc(C(F)F)c(C(=O)N2CCc3[nH]cnc3[C@@H]2c2cc3c(Cl)cccn3n2)o1` [Example 1229, (R)-(4-(4-chloropyrazolo[1,5-a]pyridin-2-yl)-6,7-dihydro-1H-imidazo[4,5-c]pyridin-5(4H)-yl)(4-(difluoromethyl)-2-(2-fluoropropan-2-yl)oxazol-5-yl)methanone] showed an AC50 of 500 to 1000 nM. For `Cc1cccc2cc([C@@H]3c4nc[nH]c4CCN3C(=O)c3oc(C(C)(C)F)nc3C(F)F)nn12` [Example 1230, (S)-(4-(difluoromethyl)-2-(2-fluoropropan-2-yl)oxazol-5-yl)(4-(7-methylpyrazolo[1,5-a]pyridin-2-yl)-6,7-dihydro-1H-imidazo[4,5-c]pyridin-5(4H)-yl)methanone], the AC50 was < 500 nM. In the case of `Cc1cccc2cc([C@H]3c4nc[nH]c4CCN3C(=O)c3oc(C(C)(C)F)nc3C(F)F)nn12` [Example 1231, (R)-(4-(difluoromethyl)-2-(2-fluoropropan-2-yl)oxazol-5-yl)(4-(7-methylpyrazolo[1,5-a]pyridin-2-yl)-6,7-dihydro-1H-imidazo[4,5-c]pyridin-5(4H)-yl)methanone], the AC50 is reported as 1000 to 5000 nM. `CC(C)(F)c1nc(C(F)F)c(C(=O)N2CCc3[nH]cnc3[C@H]2c2cc3cccc(Cl)n3n2)o1` [Example 1232, (S)-(4-(7-chloropyrazolo[1,5-a]pyridin-2-yl)-6,7-dihydro-1H-imidazo[4,5-c]pyridin-5(4H)-yl)(4-(difluoromethyl)-2-(2-fluoropropan-2-yl)oxazol-5-yl)methanone] was tested, and the AC50 was < 500 nM. In the case of `CC(C)(F)c1nc(C(F)F)c(C(=O)N2CCc3[nH]cnc3[C@@H]2c2cc3cccc(Cl)n3n2)o1` [Example 1233, (R)-(4-(7-chloropyrazolo[1,5-a]pyridin-2-yl)-6,7-dihydro-1H-imidazo[4,5-c]pyridin-5(4H)-yl)(4-(difluoromethyl)-2-(2-fluoropropan-2-yl)oxazol-5-yl)methanone], the AC50 is reported as 1000 to 5000 nM. With `O=C(c1oc(C2(O)CC2)nc1C(F)F)N1CCc2[nH]cnc2[C@H]1c1cc2c(F)cccn2n1` [Example 1234, (S)-(4-(difluoromethyl)-2-(1-hydroxycyclopropyl)oxazol-5-yl)(4-(4-fluoropyrazolo[1,5-a]pyridin-2-yl)-6,7-dihydro-1H-imidazo[4,5-c]pyridin-5(4H)-yl)methanone] the AC50 was < 500 nM. `O=C(c1oc(C2(O)CC2)nc1C(F)F)N1CCc2[nH]cnc2[C@@H]1c1cc2c(F)cccn2n1` [Example 1235, (R)-(4-(difluoromethyl)-2-(1-hydroxycyclopropyl)oxazol-5-yl)(4-(4-fluoropyrazolo[1,5-a]pyridin-2-yl)-6,7-dihydro-1H-imidazo[4,5-c]pyridin-5(4H)-yl)methanone] showed an AC50 of 1000 to 5000 nM. With `O=C(c1oc(C2(O)CC2)nc1C(F)F)N1CCc2[nH]cnc2[C@H]1c1cc2cccc(Cl)n2n1` [Example 1236, (S)-(4-(7-chloropyrazolo[1,5-a]pyridin-2-yl)-6,7-dihydro-1H-imidazo[4,5-c]pyridin-5(4H)-yl)(4-(difluoromethyl)-2-(1-hydroxycyclopropyl)oxazol-5-yl)methanone] the AC50 was < 500 nM. Molecule `O=C(c1oc(C2(O)CC2)nc1C(F)F)N1CCc2[nH]cnc2[C@@H]1c1cc2cccc(Cl)n2n1` [Example 1237, (R)-(4-(7-chloropyrazolo[1,5-a]pyridin-2-yl)-6,7-dihydro-1H-imidazo[4,5-c]pyridin-5(4H)-yl)(4-(difluoromethyl)-2-(1-hydroxycyclopropyl)oxazol-5-yl)methanone] has an AC50 of 1000 to 5000 nM. `CC(C)(O)c1nc(C(F)F)c(C(=O)N2CCc3[nH]cnc3[C@H]2c2cc3cccc(F)n3n2)o1` [Example 1238, (S)-(4-(difluoromethyl)-2-(2-hydroxypropan-2-yl)oxazol-5-yl)(4-(7-fluoropyrazolo[1,5-a]pyridin-2-yl)-6,7-dihydro-1H-imidazo[4,5-c]pyridin-5(4H)-yl)methanone] was tested, and the AC50 was < 500 nM. For `CC(C)(O)c1nc(C(F)F)c(C(=O)N2CCc3[nH]cnc3[C@@H]2c2cc3cccc(F)n3n2)o1` [Example 1239, (R)-(4-(difluoromethyl)-2-(2-hydroxypropan-2-yl)oxazol-5-yl)(4-(7-fluoropyrazolo[1,5-a]pyridin-2-yl)-6,7-dihydro-1H-imidazo[4,5-c]pyridin-5(4H)-yl)methanone], the AC50 was 1000 to 5000 nM. With `CCOc1cccc2cc([C@@H]3c4nc[nH]c4CCN3C(=O)c3ocnc3C(F)F)nn12` [Example 1240, (S)-(4-(difluoromethyl)oxazol-5-yl)(4-(7-ethoxypyrazolo[1,5-a]pyridin-2-yl)-6,7-dihydro-1H-imidazo[4,5-c]pyridin-5(4H)-yl)methanone] the AC50 was < 500 nM. `CCOc1cccc2cc([C@H]3c4nc[nH]c4CCN3C(=O)c3ocnc3C(F)F)nn12` [Example 1241, (R)-(4-(difluoromethyl)oxazol-5-yl)(4-(7-ethoxypyrazolo[1,5-a]pyridin-2-yl)-6,7-dihydro-1H-imidazo[4,5-c]pyridin-5(4H)-yl)methanone] showed an AC50 of 1000 to 5000 nM. Molecule `CCOc1cccc2cc([C@@H]3c4nc[nH]c4CCN3C(=O)c3nnc(C(C)(C)F)o3)nn12` [Example 1242, (S)-(4-(7-ethoxypyrazolo[1,5-a]pyridin-2-yl)-6,7-dihydro-1H-imidazo[4,5-c]pyridin-5(4H)-yl)(5-(2-fluoropropan-2-yl)-1,3,4-oxadiazol-2-yl)methanone] has an AC50 of 1000 to 5000 nM. `CCOc1cccc2cc([C@H]3c4nc[nH]c4CCN3C(=O)c3nnc(C(C)(C)F)o3)nn12` [Example 1243, (R)-(4-(7-ethoxypyrazolo[1,5-a]pyridin-2-yl)-6,7-dihydro-1H-imidazo[4,5-c]pyridin-5(4H)-yl)(5-(2-fluoropropan-2-yl)-1,3,4-oxadiazol-2-yl)methanone] showed an AC50 of 1000 to 5000 nM. In the case of `CCOc1cccc2cc([C@H]3c4nc[nH]c4CCN3C(=O)c3oc(C(C)(C)O)nc3C(F)F)nn12` [Example 1244, (R)-(4-(difluoromethyl)-2-(2-hydroxypropan-2-yl)oxazol-5-yl)(4-(7-ethoxypyrazolo[1,5-a]pyridin-2-yl)-6,7-dihydro-1H-imidazo[4,5-c]pyridin-5(4H)-yl)methanone], the AC50 is reported as 1000 to 5000 nM. In the case of `CC(C)(C)c1nnc(C(=O)N2CCc3[nH]cnc3[C@@H]2c2cc3cccc(F)n3n2)o1` [Example 1248, (R)-(5-(tert-butyl)-1,3,4-oxadiazol-2-yl)(4-(7-fluoropyrazolo[1,5-a]pyridin-2-yl)-6,7-dihydro-1H-imidazo[4,5-c]pyridin-5(4H)-yl)methanone], the AC50 is reported as 1000 to 5000 nM. In the case of `CC(C)(C)c1nnc(C(=O)N2CCc3[nH]cnc3[C@H]2c2cc3cccc(F)n3n2)o1` [Example 1249, (S)-(5-(tert-butyl)-1,3,4-oxadiazol-2-yl)(4-(7-fluoropyrazolo[1,5-a]pyridin-2-yl)-6,7-dihydro-1H-imidazo[4,5-c]pyridin-5(4H)-yl)methanone], the AC50 is reported as < 500 nM. For `Cc1nc(C(C)(C)F)oc1C(=O)N1CCc2[nH]cnc2[C@H]1c1cc2ccccn2n1` [Example 1250, (S)-(2-(2-fluoropropan-2-yl)-4-methyloxazol-5-yl)(4-(pyrazolo[1,5-a]pyridin-2-yl)-6,7-dihydro-1H-imidazo[4,5-c]pyridin-5(4H)-yl)methanone], the AC50 was < 500 nM.
